In patent US11382907B2, “Methods and compositions for treating aging-associated impairments using CCR3-inhibitors” (Alkahest, Inc., priority 2017, dated 2022):
pKi: −log10 of the molar value. “Also recorded” adds a separate entry of the source. Like-named read-outs stand apart in the source and are kept apart here.

Key:
[1] = tested on: Iba1-positive microglia; assay: IHC of Iba1-positive microglia in hippocampus of mice given daily LPS; assay type: in vivo, C57Bl/6 mice; settings: 3-month-old mice, daily LPS IP 7 weeks, 30 mg/kg PO BID 4 weeks
Procedure: For fluorescent microscopy, the following antibodies were used in the given concentrations: GFAP, 1:500, DAKO; Iba1, 1:1000, Wako; and BrdU, 1:500, AbCam. Antigen retrieval protocol was required for BrdU (2N HCl, 37 C, 30 min) prior to blocking. The appropriate fluorescent secondary antibodies were applied the next day at a concentration of 1:300 for one hour at room temperature. Prolong Gold Mounting Media was used to coverslip the slides. Images were acquired on a light microscope at 5× magnification.
Three-month-old C57 mice were given daily doses of lipopolysaccharide (LPS) 0.5 mg/kg IP to induce inflammation and treated with Compound 1 for up to 4 weeks.
Treatment Groups: • Treatment Group 1, Vehicle treatment: 3-month-old C57 mice (n=10) received daily IP injection of LPS for 7 weeks and twice daily (BID) oral gavage (PO) treatment of vehicle solution for up to 4 weeks. • Treatment Group 2, Vehicle treatment and Oxazolone treatment: 3-month-old C57 mice (n=10) received daily IP injection of LPS for 7 weeks and twice daily (BID) oral gavage (PO) treatment of vehicle solution for up to 4 weeks. • Treatment Group 3, Compound 1 treatment and Oxazolone treatment: 3-month-old C57 mice (n=9) received daily IP injection of LPS for 7 weeks and twice daily (BID) oral gavage (PO) treatment of Compound 1, 30 mg/kg, for up to 4 weeks.

[2] = Compound cerebrospinal fluid levels in mice (mass spectroscopy); assay type: in vivo, C57BL/6 mice; settings: for concentration at 4 weeks: C57BL/6, mouse, cerebrospinal fluid, subcutaneous, 16.5-month-old old group, read-out: level of Compound 1 in CSF
Procedure: Compound levels were measured by MS/MS by Quintara (Hayward, Calif.).
Cerebrospinal fluid (CSF) from both the 2-month-old “young” and 16.5-month-old “old” groups was collected and levels of Compound 1 were determined by mass spectroscopy. FIG. 6 depicts the levels of the compound of the invention that were detected in mouse CSF for both the young and old groups (both below 10 nM).

[3] = target: T1, CCR3 (Mus musculus, UniProt P51678); assay: cell line receptor binding (Ki for the compound in mice); settings: determined by cell line receptor binding
T1 construct: host or cells: unnamed cell line
T1 sequence (P51678 1-359): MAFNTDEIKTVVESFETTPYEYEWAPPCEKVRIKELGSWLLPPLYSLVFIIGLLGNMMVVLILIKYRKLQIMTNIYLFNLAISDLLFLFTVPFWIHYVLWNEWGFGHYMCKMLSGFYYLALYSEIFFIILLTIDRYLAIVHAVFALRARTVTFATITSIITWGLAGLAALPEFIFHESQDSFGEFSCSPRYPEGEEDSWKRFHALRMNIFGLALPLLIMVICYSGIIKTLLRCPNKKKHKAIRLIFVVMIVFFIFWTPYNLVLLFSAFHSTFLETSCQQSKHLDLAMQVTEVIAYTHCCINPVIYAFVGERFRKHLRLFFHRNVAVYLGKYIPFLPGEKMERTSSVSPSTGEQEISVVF

[4] = tested on: inflammatory cytokines TNFa, IL6, IL1beta, IL5, IL17; assay: Luminex assay of inflammatory cytokines in plasma of aged mice; assay type: in vivo, C57Bl/6 mice; settings: 23-month-old mice, 30 mg/kg SQ BID 21 days
Procedure: Panels of circulating cytokines from mouse plasma were analyzed by Luminex. Luminex Assay Service performed by Eve Technologies (Calgary, Alberta, Canada).
23-month-old C57Bl/6 mice were dosed with either vehicle control or Compound 1 subcutaneously twice daily for 21 days. Three weeks later, mice were subjected to behavior testing, and sacrificed the day following the last behavior test.
(§1) Treatment Groups: • Treatment Group 1b, Vehicle treatment: Aged C57Bl/6 mice (n=9), aged 23 months, received twice daily (BID) subcutaneous (SQ) treatment of vehicle solution for 21 days. • Treatment Group 4, Compound 1 treatment: Aged C57Bl/6 mice (n=17), aged 23 months, received twice daily (BID) subcutaneous (SQ) treatment of Compound 1, 30 mg/kg, for 21 days.

[5] = tested on: blood eosinophils; assay: Blood eosinophils in aged mice (FACS); assay type: in vivo, C57Bl/6 mice; settings: 23-month-old mice, 30 mg/kg SQ BID 30 days, subset n=2, 5
Procedure: 200 uL of whole blood was collected during perfusion and shipped to Charles River Clinical Pathology Services (Shrewsbury, Mass.) for hematology analysis of eosinophil count by FACS (fluorescence activated cell sorter).
23-month-old C57Bl/6 mice were dosed with either vehicle control or Compound 1 subcutaneously twice daily for 30 days, and then sacrificed on the day of the last injection.
as §1, with “1a,” for “1b,”, “30” for “21”, “3,” for “4,”, “(n=18),” for “(n=17),”

concentration at 4 weeks ([2]; 50 mg/mL solution infused at 0.5 μL/hour by Alzet mini-pump, mass spectroscopy): < 0.01 µM
concentration at 4 weeks ([2]; mass spectroscopy): < 0.01 µM
level of Compound 1 in CSF ([2]; young group, mass spectroscopy): below 10 nM
pKi [3]: 6.91
Structure (SMILES): Cc1cc(C(=O)N(C)C)cc(NC(=O)[C@H]2CCC(=O)N2C2CCN(Cc3ccc(Cl)c(C)c3)CC2)n1 [Compound 1]
Iba1+ immunoreactivity (total microglia) in hippocampus [1]: dramatically decreased Iba1+ immunoreactivity; also recorded: trend towards decrease
difference in BBB penetration between young and old mice ([2]; mouse, in vivo): no difference in BBB penetration between young and old mice
crossing of the blood-brain barrier (CSF levels versus Ki) ([2]; young and old mice): do not cross the blood-brain barrier (BBB) in significant concentrations
plasma IL1beta level [4]: strong trends in decrease; also recorded: trend lower
plasma IL5 level [4]: strong trends in decrease; also recorded: trend lower
plasma IL6 level [4]: strong trends in decrease; also recorded: trend lower
plasma IL17 level [4]: strong trends in decrease; also recorded: trend lower
plasma TNFa level [4]: strong trends in decrease; also recorded: trend lower
blood eosinophils (percentage of WBC count) [5]: strong trend towards decreased blood eosinophils; also recorded: decreased an endogenous age-related increase in blood eosinophils
